{"source": "paper PMC5063506", "about": "“A Novel Class of Small Molecule Agonists with Preference for Human over Mouse TLR4 Activation” (PLoS ONE, 2016)", "key": {"[1]": {"system": "cotton rat PBMCs", "assay": "Cytokine gene expression in cotton rat PBMCs (QuantiGene Plex)", "assay_type": "cell-based", "conditions": "1 μg/ml, 24 h", "experimental": "(§1) Splenocytes were isolated from naïve BALB/c mice by dissociating spleens with a GentleMACS (Miltenyi) instrument, then filtration through […] screens. For other species, blood was obtained through venipuncture or cardiac puncture into heparinized tubes, then diluted 1:1 with PBS or HBSS and layered onto Ficoll-Histopaque (GE Healthcare) for blood from healthy human volunteers and cynomolgus macaques, Lympholyte-Mammal (Cedarlane Labs) for New Zealand white rabbits, Sprague-Dawley rats, Hartley guinea pigs, cotton rats, and ferrets, followed by standard density centrifugation techniques. […]\n(§2) PBMCs (human, cynomolgus macaque, guinea pig, ferret, rabbit, rat, and cotton rat) or splenocytes (mouse) were seeded onto 96-well flat bottom plates at 5 x 10^5 cells/well and stimulated with TLR4 agonists at 1 and 0.2 μg/ml for 24 h at 37°C. […] For human, cyno, mouse, and rat, cell-free SNs were analyzed via human, NHP, mouse, and rat MILLIPLEX kits. For GP, ferret, rabbit, and CR, cells were lysed by Millipore lysing buffer and snap frozen at -70 C until ready for analysis by Affymetrix QuantiGene 2.0 Plex kits. […] Signal was detected using a Bioplex 200 instrument (BioRad). […]\nFig 9 Species-specific activation of IL-6, TNF-α, and chemokine expression in primary cells. […] For human, cyno, mouse, and rat, SNs were analyzed via human, NHP, mouse, and rat MILLIPLEX kits. […]"}, "[2]": {"system": "rat PBMCs", "assay": "Cytokine induction in rat PBMCs (rat MILLIPLEX)", "assay_type": "cell-based, Sprague-Dawley rat", "conditions": "1 and 0.2 μg/ml, 24 h", "experimental": "as §1, §2\nFig 8 Secreted cytokine profile of rat PBMCs stimulated by AZ618. […] SNs were analyzed via rat MILLIPLEX kits. Data are expressed as the means of 3 rats at the 1 μg/ml dose of TLR4 agonist and are representative of 2 studies. […]"}, "[3]": {"system": "mouse splenocytes", "assay": "Cytokine induction in mouse splenocytes (mouse MILLIPLEX)", "assay_type": "cell-based, BALB/c mouse", "conditions": "1 and 0.2 μg/ml, 24 h", "experimental": "as §1, §2\nFig 6 The Ugi compound-induced cytokine profile is similar to MPL and LPS in human PBMCs but not mouse splenocytes. […] SNs were analyzed via human and mouse MILLIPLEX kits. […]"}, "[4]": {"assay": "Intrinsic clearance in presence of rat hepatocytes", "assay_type": "in vitro ADME", "conditions": "read-out: Clint rh (intrinsic clearance, rat hepatocytes)", "from_the_text": "Fig 2 Optimization stages of Ugi products as TLR4 agonists. *Human TLR-4 NFκB SEAP reporter assays; protocol as described in Methods. Data are reported as pEC50, or negative log of the EC50 values. **Clint rh / hm represents intrinsic clearance in presence of rat hepatocytes (μL/min/10^6 cells) and human microsomes (μL/min/mg protein). […] Thus a drug molecule with LogD >4 might be considered to be very lipophilic and therefore more likely to suffer from rapid metabolic turnover, poor solubility and receptor promiscuity; whereas a LogD range of 1–3 is more likely to be associated with optimal physicochemical and drug-like properties. ^††Solubility was measured by dissolution of solid samples in buffer at pH 7.4."}, "[5]": {"system": "cytochrome P450 enzymes", "assay": "Inhibition of cytochrome P450 enzymes (unpublished data)", "assay_type": "in vitro ADME", "conditions": "compared with earlier-stage, more lipophilic Ugi compounds"}}}
{"smiles": "Cc1cc(C)cc(N(C(=O)c2cc(-c3ccccc3)n(-c3ccccc3)n2)C(C(=O)NC2CCCC2)c2ccc(CC(=O)O)cc2)c1", "note": "(centres unmarked) [AZ618, 2-(4-(2-(cyclopentylamino)-1-(N-(3,5-dimethylphenyl)-1,5-diphenyl-1H-pyrazole-3-carboxamido)-2-oxoethyl)phenyl)acetic acid]", "values": [{"measurement": "activation of cotton rat PBMCs", "setting": "[1]", "result": "able to activate"}, {"measurement": "response in rat PBMCs (cytokine secretion)", "setting": "[2]", "result": "comparable to that induced by MPL"}]}
{"smiles": "CC(C)(C)c1ccc(N(C(=O)c2cc(-c3ccccc3)n(-c3ccccc3)n2)C(C(=O)NC2CCCC2)c2ccc(CC(=O)O)cc2)cc1", "note": "(centres unmarked) [AZ902]", "values": [{"measurement": "reactivity of mouse splenocytes (cytokine secretion)", "setting": "[3]", "result": "marginal activation"}]}
{"smiles": "O=C(O)Cc1ccc(C(C(=O)NC2CCCC2)N(C(=O)c2cc(-c3ccccc3)n(-c3ccccc3)n2)c2ccc3c(c2)CCC3)cc1", "note": "(centres unmarked) [AZ617]", "values": [{"measurement": "hepatocyte CLint", "setting": "[4]", "result": "< 5", "unit": "µL/min/1e6 cells"}, {"measurement": "inhibition of one or more cytochrome P450 enzymes", "setting": "[5]", "result": "abolished"}]}
